For one assay, the target named is SPOP^MATH (Homo sapiens, UniProt O43791). In words: fluorescence polarization, displacement of FITC-puc_SBC1 peptide. In kind it is binding.
Another assay addresses T1, RNF130 (Homo sapiens, UniProt Q86XS8).
T1 sequence (Q86XS8 28-304): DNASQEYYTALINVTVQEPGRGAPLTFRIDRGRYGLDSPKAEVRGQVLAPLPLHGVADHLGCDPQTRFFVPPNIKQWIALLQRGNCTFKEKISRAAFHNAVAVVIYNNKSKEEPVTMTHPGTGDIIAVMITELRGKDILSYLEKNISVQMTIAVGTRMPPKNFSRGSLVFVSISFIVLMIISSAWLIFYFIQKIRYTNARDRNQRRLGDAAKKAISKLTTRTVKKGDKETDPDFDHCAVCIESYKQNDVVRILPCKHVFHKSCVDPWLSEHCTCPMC
Kind of assay: SPR, Biacore T200, amine-coupled RNF130 on CM5 chip. The assay is classed as binding.

Chain of SPOP^MATH (O43791 28-166): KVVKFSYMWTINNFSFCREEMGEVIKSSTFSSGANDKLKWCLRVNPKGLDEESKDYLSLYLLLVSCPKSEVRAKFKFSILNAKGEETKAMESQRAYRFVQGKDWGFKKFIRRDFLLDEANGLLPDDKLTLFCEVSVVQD

With `Cc1nnc(SCC2=C(C(=O)O)N3C(=O)C(NC(=O)c4ccc(COc5ccccc5Cl)o4)C3SC2)s1` (stereo not drawn) [221C7], the IC50 at SPOP^MATH was determined as 4.3 µM.
Take `CC(=O)OCC1=C(C(=O)O)N2C(=O)C(NC(=O)c3ccc(COc4ccc(Br)cc4Cl)o3)C2SC1` (stereo not drawn) [230D7, 3-(acetoxymethyl)-7-(5-((4-bromo-2-chlorophenoxy)methyl)furan-2-carboxamido)-8-oxo-5-thia-1-azabicyclo[4.2.0]oct-2-ene-2-carboxylic acid]: at SPOP^MATH, the IC50 was 8.7 µM.
Compound `CS(=O)(=O)c1nnc(CN2C3C=C(c4ccccc4)CC2CC3)s1` (stereo not drawn) [iRNF130-63] came in with a Kd on RNF130 of 9.36 µM.

The values above are taken from article doi:10.1101/2022.03.26.485909v4 (biorxiv, 2022).
